Non-standard residues stand in square brackets, D forms with d. No end group written: not given here. tri‑branched mPEG‑MAL 50 kDa = tri-branched maleimide-activated monomethoxy PEG, 50 kDa; Aib = CC(C)(N)C(=O)O
Experiments:
Type in all cases: in vivo
[1] = tested on: db/db mice; test: blood glucose and body weight in db/db mice (Experimental Example 4)
Method: First of all, the conjugate of Example 2 was administered to 7-week-old db/db mice by subcutaneous injection at a dose of 20 nmol/kg once every other day for 12 days. For 12 days when the drug was administered, the changes in blood glucose and body weights were measured once every other day after the drug administration.

[2] = tested on: obesity animal model (C57BL/6 mice, 60% high-fat diet); test: blood glucose in obesity model, Examples 2 and 6 (Experimental Example 6); settings: 20 nmol/kg s.c. once every other day for 2 weeks; FIG. 5
Method: To check a preventing or therapeutic effect of the conjugates of Examples 2 and 6, which had different amino acid sequences, on obesity or diabetes, an animal model of obesity was prepared by feeding a 60% high-fat diet to normal C57BL/6 mice (approximately 6 weeks old) for approximately 24 weeks, and increasing the body weights of the mice to approximately 50 g in average. Thereafter, each of the conjugates of Examples 2 or 6 was administered by subcutaneous injection at a dose of 20 nmol/kg once every other day for 2 weeks. As the control, PBS was administered instead of the conjugates of Examples. For 2 weeks when the conjugates of Examples 2 or 6 were administered, changes in blood glucose with time were measured. Also, to perform an intraperitoneal glucose tolerance test (ipGTT), 2 g/kg of glucose was administered intraperitoneally after the 2-week administration of the drug, and changes in blood glucose with the elapse of time (0, 15, 30, 60, 90, and 120 minutes) were measured.

[3] = tested on: animal model of non-alcoholic fatty liver diseases (C57BL/6 mice, high-trans-fat diet); test: non-alcoholic fatty liver disease model, high-trans-fat diet (Experimental Example 8); settings: 20 nmol/kg s.c. once every three days for 4 weeks, also lowered vs liraglutide
Method: First of all, a laboratory animal model of non-alcoholic fatty liver diseases was prepared by feeding a high-trans-fat diet, which contained 40% high fats, 20% fructose, and 2% cholesterol, to normal C57BL/6 mice (approximately 6 weeks old) for approximately 16 weeks. Thereafter, the conjugate of Example 2 was administered by subcutaneous injection at a dose of 20 nmol/kg once every three days for 4 weeks. […] After the 4-week experiment was completed, a level of serum cholesterol, the liver weights, and the hepatic triglycerides (hepatic TGs) were measured.

[4] = 20 nmol/kg s.c. once every other day for 12 days
[5] = day 0, 20 nmol/kg s.c. once every other day
[6] = day 2, 20 nmol/kg s.c. once every other day
[7] = day 4, 20 nmol/kg s.c. once every other day
[8] = day 6, 20 nmol/kg s.c. once every other day
[9] = day 8, 20 nmol/kg s.c. once every other day
[10] = day 10, 20 nmol/kg s.c. once every other day
[11] = day 12, 20 nmol/kg s.c. once every other day

Example 2: Conjugate of polypeptide H(Aib)QGTFTSDYSKYLDEQAAKEFVQWLMNTC (SEQ ID NO. 2) and tri-branched mPEG-MAL (MW: 50 kDa) (H[Aib]QGTFTSDYSKYLDEQAAKEFVQWLMNTC(tri‑branched mPEG‑MAL 50 kDa); lactam (positions not given here); not fully specified (bridges); printed as H(Aib)QGTFTSDYSKYLDEQAAKEFVQWLMNTC)
body weight vs non-treated group [1, 4]: body weight loss was observed | level of blood glucose vs non-treated group [1, 4]: a level of blood glucose was lowered | Blood glucose [1, 5]: 100% | Body weight [1, 5]: 100% | Blood glucose [1, 6]: 88% | Body weight [1, 6]: 96% | Blood glucose [1, 7]: 34% | Body weight [1, 7]: 91% | Blood glucose [1, 8]: 25% | Body weight [1, 8]: 86% | Blood glucose [1, 9]: 17% | Body weight [1, 9]: 84% | Blood glucose [1, 10]: 17% | Body weight [1, 10]: 79% | Blood glucose [1, 11]: 16% | Body weight [1, 11]: 76% | level of blood glucose vs control [2]: a level of blood glucose was lowered | level of serum cholesterol vs non-treated group ([3]; FIG. 10): significantly lowered | liver weights vs non-treated group ([3]; FIG. 11): significantly lowered | hepatic triglycerides vs non-treated group ([3]; FIG. 12): significantly lowered

— patent US12338270B2, “Pharmaceutical composition comprising polypeptide” (D&D Pharmatech Inc., priority 2018, dated 2025)
